Assay results from US8153809B2, “Dihydropyridone ureas as P2X7 modulators” (Roche Palo Alto LLC, priority 2008, dated 2012).

Molecular target: T1, P2X7 (UniProt Q99572)
T1 sequence (Q99572 1-595): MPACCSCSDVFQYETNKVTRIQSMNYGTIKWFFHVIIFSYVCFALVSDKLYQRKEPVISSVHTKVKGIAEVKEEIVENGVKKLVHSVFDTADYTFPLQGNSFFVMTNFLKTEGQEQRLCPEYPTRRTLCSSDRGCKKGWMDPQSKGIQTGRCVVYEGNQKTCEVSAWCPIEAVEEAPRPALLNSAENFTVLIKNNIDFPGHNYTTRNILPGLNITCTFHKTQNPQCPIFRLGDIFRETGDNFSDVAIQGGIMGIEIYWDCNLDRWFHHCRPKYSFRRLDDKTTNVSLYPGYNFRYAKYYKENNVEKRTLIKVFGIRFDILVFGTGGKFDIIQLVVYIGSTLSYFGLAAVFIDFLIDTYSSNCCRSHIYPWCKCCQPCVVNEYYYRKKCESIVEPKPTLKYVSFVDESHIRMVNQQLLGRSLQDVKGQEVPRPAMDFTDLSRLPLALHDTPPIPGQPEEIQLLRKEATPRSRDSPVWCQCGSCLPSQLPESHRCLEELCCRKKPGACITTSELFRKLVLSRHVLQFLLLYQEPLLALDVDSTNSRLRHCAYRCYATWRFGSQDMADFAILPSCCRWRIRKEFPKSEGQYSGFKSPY
Experiment: pIC50 values for P2X7 (Table 1)
Assay type: cell-based
Summary of the method: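 Fluo-3-loaded 1321N1 cells expressing human P2X7 or HEK293 cells expressing rat P2X7, preincubated 20 min at room temperature with antagonist in HBSS/Hepes/probenecid buffer with 2 mM CaCl2. BzATP agonist at 100 μM final (human) or 5 μM final (rat); fluorescence read 5 min, peak normalized to 5 μM ionomycin response.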

`CC(=O)NCc1cc(NC(=O)N2C=CC(=O)C[C@H]2c2ccc(F)cc2)c(C)cc1Cl` [Compound 124, (S)-2-(4-Fluoro-phenyl)-4-oxo-3,4-dihydro-2H-pyridine-1-carboxylic acid [5-(acetylamino-methyl)-4-chloro-2-methyl-phenyl]-amide] was tested, and the pIC50 was 6.98.

`Cc1c(NC(=O)N2C=CC(=O)C[C@H]2c2ccc(F)cc2)ccc2ncccc12` [Compound 125, (S)-2-(4-Fluoro-phenyl)-4-oxo-3,4-dihydro-2H-pyridine-1-carboxylic acid (5-methyl-quinolin-6-yl)-amide] was tested, and the pIC50 was 7.16.

In the case of `O=C1C=CN(C(=O)Nc2ccccc2)[C@H](c2ccc(F)cc2)C1` [Compound 126, (S)-2-(4-Fluoro-phenyl)-4-oxo-3,4-dihydro-2H-pyridine-1-carboxylic acid phenylamide], the pIC50 is reported as 6.18.

`Cc1cc(Cl)c(CN(CCO)CCO)cc1NC(=O)N1C=CC(=O)C[C@H]1c1ccc(F)cc1` [Compound 127, (S)-2-(4-Fluoro-phenyl)-4-oxo-3,4-dihydro-2H-pyridine-1-carboxylic acid (5-{[bis(2-hydroxy-ethyl)-amino]-methyl}-4-chloro-2-methyl-phenyl)-amide] was tested, and the pIC50 was 7.615.

For `CN1C(=O)CCc2cc(Br)c(NC(=O)N3C=CC(=O)C[C@H]3c3ccc(F)cc3)cc21` [Compound 128, (S)-2-(4-Fluoro-phenyl)-4-oxo-3,4-dihydro-2H-pyridine-1-carboxylic acid (6-bromo-1-methyl-2-oxo-1,2,3,4-tetrahydro-quinolin-7-yl)-amide], the pIC50 was 7.595.

With `Cc1cc(Cl)c(CN2CCOCC2)cc1NC(=O)N1C=CC(=O)C[C@H]1c1ccc(F)cc1` [Compound 129, (S)-2-(4-Fluoro-phenyl)-4-oxo-3,4-dihydro-2H-pyridine-1-carboxylic acid (4-chloro-2-methyl-5-morpholin-4-ylmethyl-phenyl)-amide] the pIC50 was 6.945.

With `Cc1cccc(NC(=O)N2C=CC(=O)C[C@H]2c2ccc(F)cc2)c1` [Compound 130, (S)-2-(4-Fluoro-phenyl)-4-oxo-3,4-dihydro-2H-pyridine-1-carboxylic acid m-tolylamide] the pIC50 was 7.12.

For `Cc1ccccc1NC(=O)N1C=CC(=O)C[C@H]1c1ccc(F)cc1` [Compound 131, (S)-2-(4-Fluoro-phenyl)-4-oxo-3,4-dihydro-2H-pyridine-1-carbxoylic acid o-tolylamide], the pIC50 was 7.53.

`COc1cccc(NC(=O)N2C=CC(=O)C[C@H]2c2ccc(F)cc2)c1C` [Compound 132, (S)-2-(4-Fluoro-phenyl)-4-oxo-3,4-dihydro-2H-pyridine-1-carboxylic acid (3-methoxy-2-methyl-phenyl)-amide] gave a pIC50 of 8.57.

In the case of `Cc1cc(Cl)c(CCO)cc1NC(=O)N1C=CC(=O)C[C@H]1c1ccc(F)cc1` [Compound 133, (S)-2-(4-Fluoro-phenyl)-4-oxo-3,4-dihydro-2H-pyridine-1-carboxylic acid [4-chloro-5-(2-hydroxy-ethyl)-2-methyl-phenyl]-amide], the pIC50 is reported as 8.06.

For `O=C1C=CN(C(=O)Nc2ccc3c(c2)NC(=O)C3)[C@H](c2ccc(F)cc2)C1` [Compound 134, (S)-2-(4-Fluoro-phenyl)-4-oxo-3,4-dihydro-2H-pyridine-1-carboxylic acid (2-oxo-2,3-dihydro-1H-indol-6-yl)-amide], the pIC50 was 5.385.

`O=C1C=CN(C(=O)Nc2cc3c(cc2Br)OCCO3)[C@H](c2ccc(F)cc2)C1` [Compound 136, (S)-2-(4-Fluoro-phenyl)-4-oxo-3,4-dihydro-2H-pyridine-1-carboxylic acid (7-bromo-2,3-dihydro-benzo[1,4]dioxin-6-yl)-amide] gave a pIC50 of 8.095.

`Cc1ccc(NC(=O)N2C=CC(=O)C[C@H]2c2ccc(F)cc2)cc1` [Compound 137, (S)-2-(4-Fluoro-phenyl)-4-oxo-3,4-dihydro-2H-pyridine-1-carboxylic acid p-tolylamide] gave a pIC50 of 6.57.

`Cc1c(Cl)cccc1NC(=O)N1C=CC(=O)C[C@H]1c1ccc(F)cc1` [Compound 138, (S)-2-(4-Fluoro-phenyl)-4-oxo-3,4-dihydro-2H-pyridine-1-carboxylic acid (3-chloro-2-methyl-phenyl)-amide] showed a pIC50 of 8.34.

`Cc1c(CO)cccc1NC(=O)N1C=CC(=O)C[C@H]1c1ccc(F)cc1` [Compound 139, (S)-2-(4-Fluoro-phenyl)-4-oxo-3,4-dihydro-2H-pyridine-1-carboxylic acid (3-hydroxymethyl-2-methyl-phenyl)-amide] gave a pIC50 of 7.79.

With `Cc1cc2ccn(C)c2cc1NC(=O)N1C=CC(=O)C[C@H]1c1ccc(F)cc1` [Compound 140, (S)-2-(4-Fluoro-phenyl)-4-oxo-3,4-dihydro-2H-pyridine-1-carboxylic acid (1,5-dimethyl-1H-indol-6-yl)-amide] the pIC50 was 8.565.

`CNC(=O)c1cccc(NC(=O)N2C=CC(=O)C[C@H]2c2ccc(F)cc2)c1C` [Compound 141, (S)-2-(4-Fluoro-phenyl)-4-oxo-3,4-dihydro-2H-pyridine-1-carboxylic acid (2-methyl-3-methylcarbamoyl-phenyl)-amide] gave a pIC50 of 6.185.

With `Cc1cc(Cl)c(OC2CCNCC2)cc1NC(=O)N1C=CC(=O)C[C@H]1c1ccc(F)cc1` [Compound 142, (S)-2-(4-Fluoro-phenyl)-4-oxo-3,4-dihydro-2H-pyridine-1-carboxylic acid [4-chloro-2-methyl-5-(piperidin-4-yloxy)-phenyl]-amide] the pIC50 was 6.71.

For `Cc1cc2c(cc1NC(=O)N1C=CC(=O)C[C@H]1c1ccc(F)cc1)OCCN2C` [Compound 143, (S)-2-(4-Fluoro-phenyl)-4-oxo-3,4-dihydro-2H-pyridine-1-carboxylic acid (4,6-dimethyl-3,4-dihydro-2H-benzo[1,4]oxazin-7-yl)-amide], the pIC50 was 7.825.

Work on `Cc1c(CC(=O)OC(C)(C)C)cccc1NC(=O)N1C=CC(=O)C[C@H]1c1ccc(F)cc1` [Compound 144, (3-{[(S)-2-(4-Fluoro-phenyl)-4-oxo-3,4-dihydro-2H-pyridine-1-carbonyl]amino}-2-methyl-phenyl)-acetic acid tert-butyl ester] yielded a pIC50 of 6.215.

`Cc1nn(C)c2cc(NC(=O)N3C=CC(=O)C[C@H]3c3ccc(F)cc3)ccc12` [Compound 145, (S)-2-(4-Fluoro-phenyl)-4-oxo-3,4-dihydro-2H-pyridine-1-carboxylic acid (1,3-dimethyl-1H-indazol-6-yl)-amide] was tested, and the pIC50 was 6.535.

In the case of `Cc1c2ccc(NC(=O)N3C=CC(=O)C[C@H]3c3ccc(F)cc3)cc2nn1C` [Compound 146, (S)-2-(4-Fluoro-phenyl)-4-oxo-3,4-dihydro-2H-pyridine-1-carboxylic acid (2,3-dimethyl-2H-indazol-6-yl)-amide], the pIC50 is reported as 5.615.

With `Cn1cc2ccc(NC(=O)N3C=CC(=O)C[C@H]3c3cccc(F)c3)cc2n1` [Compound 147, (S)-2-(3-Fluoro-phenyl)-4-oxo-3,4-dihydro-2H-pyridine-1-carbxoylic acid (2-methyl-2H-indazol-6-yl)-amide] the pIC50 was 5.505.

For `Cn1cc2cc(NC(=O)N3C=CC(=O)C[C@H]3c3ccc(F)cc3)ccc2n1` [Compound 148, (S)-2-(4-Fluoro-phenyl)-4-oxo-3,4-dihydro-2H-pyridine-1-carboxylic acid (2-methyl-2H-indazol-5-yl)-amide], the pIC50 was 6.87.

With `CCc1c(NC(=O)N2C=CC(=O)C[C@H]2c2ccc(F)cc2)ccc2ncccc12` [Compound 149, (S)-2-(4-Fluoro-phenyl)-4-oxo-3,4-dihydro-2H-pyridine-1-carboxylic acid (5-ethyl-quinolin-6-yl)-amide] the pIC50 was 8.445.

Molecule `Cc1c(CCO)cccc1NC(=O)N1C=CC(=O)C[C@H]1c1ccc(F)cc1` [Compound 150, (S)-2-(4-Fluoro-phenyl)-4-oxo-3,4-dihydro-2H-pyridine-1-carboxylic acid [3-(2-hydroxy-ethyl)-2-methyl-phenyl]-amide] has a pIC50 of 7.835.

`Cc1c2ccc(NC(=O)N3C=CC(=O)C[C@H]3c3ccc(F)cc3)c(Br)c2nn1C` [Compound 151, (S)-2-(4-Fluoro-phenyl)-4-oxo-3,4-dihydro-2H-pyridine-1-carboxylic acid (7-bromo-2,3-dimethyl-2H-indazol-6-yl)-amide] gave a pIC50 of 5.975.

With `O=C1C=CN(C(=O)Nc2cccc3c2CCO3)[C@H](c2ccc(F)cc2)C1` [Compound 152, (S)-2-(4-Fluoro-phenyl)-4-oxo-3,4-dihydro-2H-pyridine-1-carboxylic acid (2,3-dihydro-benzofuran-4-yl)-amide] the pIC50 was 7.355.

Molecule `CCc1cc2ncccc2cc1NC(=O)N1C=CC(=O)C[C@H]1c1ccc(F)cc1` [Compound 153, (S)-2-(4-Fluoro-phenyl)-4-oxo-3,4-dihydro-2H-pyridine-1-carboxylic acid (7-ethyl-quinolin-6-yl)-amide] has a pIC50 of 7.85.

In the case of `O=C1C=CN(C(=O)Nc2cccc3ncccc23)[C@H](c2ccc(F)cc2)C1` [Compound 154, (S)-2-(4-Fluoro-phenyl)-4-oxo-3,4-dihydro-2H-pyridine-1-carboxylic acid quinolin-5-ylamide], the pIC50 is reported as 8.64.

`Cc1cc(F)c(F)cc1NC(=O)N1C=CC(=O)C[C@H]1c1ccc(F)cc1` [Compound 155, (S)-2-(4-Fluoro-phenyl)-4-oxo-3,4-dihydro-2H-pyridine-1-carboxylic acid (4,5-difluoro-2-methyl-phenyl)-amide] gave a pIC50 of 7.12.
